Data from US20250144067A1, “PERSONALIZED STARVATION THERAPY FOR CANCER” (Faeth Therapeutics, Inc., priority 2021, published 2025).
Where a name gives a salt, the structure may show the parent alone. Read-outs that look alike come from different tables or passages of the source. Peptide text beside a SMILES is read from it.

Key:
[1] = tested on: NCI-H292 lung cancer cells; experiment: FDA drug screening, complete media vs cholesterol-free media without statin (TABLE 1); type: cell-based, human
[2] = tested on: NCI-H292 lung cancer cells; experiment: FDA drug screening, complete media vs cholesterol-free media with simvastatin (TABLE 2); type: cell-based, human
[3] = NCI-H292 cells, cholesterol-free media without statin
[4] = complete vs cholesterol-free media, greater than 0 enhanced anti-cancer activity, about 0 neutral, below 0 antagonists
[5] = NCI-H292 cells, FDA drug library screen, cholesterol-free media with simvastatin 0.04 μM
[6] = NCI-H292 cells, FDA drug library screen, complete media
[7] = complete media vs cholesterol-free media + simvastatin (0.04 μM), >0 enhanced anti-cancer activity, about 0 neutral, <0 antagonist
[8] = NCI-H292 cells, cholesterol-free media without statin, FDA drug library screen
[9] = NCI-H292 cells, complete media, FDA drug library screen
[10] = complete vs cholesterol-free media, >0 enhanced anti-cancer activity, about 0 neutral, <0 antagonist
[11] = NCI-H292 cells, FDA library drug in cholesterol-free media with simvastatin 0.04 μM
[12] = NCI-H292 cells, FDA library drug in complete media
[13] = complete media minus cholesterol-free media + simvastatin, >0 enhanced anti-cancer activity, about 0 neutral, <0 antagonist
[14] = Complete minus Cholesterol-free, greater than 0 enhanced anti-cancer activity, about 0 neutral, below 0 antagonist
[15] = NCI-H292 cells, FDA drug library screen, cholesterol-free media without statin
[16] = NCI-H292 cells, cholesterol-free media with simvastatin 0.04 μM, FDA drug library screen (TABLE 2)
[17] = NCI-H292 cells, complete media, FDA drug library screen (TABLE 2)
[18] = complete media minus cholesterol-free media + simvastatin (0.04 μM), >0 enhanced anti-cancer activity, about 0 neutral, <0 antagonist
[19] = NCI-H292 cells, cholesterol-free media with simvastatin 0.04 μM, cell growth value in FDA drug screen
[20] = NCI-H292 cells, complete media, cell growth value in FDA drug screen
[21] = Complete minus Cholesterol-free, >0 enhanced anti-cancer activity, about 0 neutral, <0 antagonist
[22] = NCI-H292 cells, drug in cholesterol-free media with simvastatin 0.04 μM
[23] = NCI-H292 cells, drug in complete media
[24] = complete vs cholesterol-free media, […]
[25] = complete media vs cholesterol-free media + simvastatin (0.04 μM), […]
[26] = Complete minus Cholesterol-free, greater than 0 enhanced anti-cancer activity, about 0 neutral, below 0 antagonists
[27] = NCI-H292 cells in cholesterol-free media without statin
[28] = NCI-H292 cells in complete media

C[C@H](CCC(=O)O)[C@H]1CC[C@H]2[C@@H]3[C@@H](O)C[C@@H]4C[C@H](O)CC[C@]4(C)[C@H]3CC[C@]12C [Ursodiol]
Cholesterol-free [1, 3]: 1.392 | Complete ([1]; NCI-H292 cells, complete media): 0.9832 | Difference [1, 4]: −0.41 | Cholesterol-free media + simvastatin (0.04 μM) [2, 5]: 1.413 | Complete Media [2, 6]: 1.314 | Difference [2, 7]: −0.10

CCOC(=O)[C@H](CCc1ccccc1)N[C@@H](C)C(=O)N1C(=O)N(C)C[C@H]1C(=O)O [Imidapril (hydrochloride)]
Cholesterol-free [1, 8]: 0.9489 | Complete [1, 9]: 1.458 | Difference [1, 10]: 0.51 | Cholesterol-free media + simvastatin (0.04 μM) [2, 11]: 1.282 | Complete Media [2, 12]: 0.8523 | Difference [2, 7]: −0.43

O=C(Nc1ccc([N+](=O)[O-])cc1Cl)c1cc(Cl)ccc1O [Niclosamide]
Cholesterol-free [1, 3]: 0.9593 | Complete ([1]; NCI-H292 cells, complete media): 0.6271 | Difference [1, 4]: −0.33 | Cholesterol-free media + simvastatin (0.04 μM) [2, 5]: 0.365 | Complete Media [2, 6]: 1.031 | Difference [2, 13]: 0.67

CCN(C(=O)c1c(O)c2c(Cl)cccc2n(C)c1=O)c1ccccc1 [Laquinimod]
Difference [1, 14]: −0.15 | Cholesterol-free [1, 15]: 1.127 | Complete [1, 6]: 0.9797 | Cholesterol-free media + simvastatin (0.04 μM) [2, 16]: 1.3 | Complete Media [2, 17]: 1.306 | Difference [2, 18]: 0.01

COc1cc2nccc(Oc3ccc(NC(=O)Nc4cc(C)on4)c(Cl)c3)c2cc1OC [Tivozanib]
Cholesterol-free [1, 3]: 1.298 | Complete ([1]; NCI-H292 cells, complete media): 0.868 | Difference [1, 4]: −0.43 | Cholesterol-free media + simvastatin (0.04 μM) [2, 5]: 0.868 | Complete Media [2, 6]: 1.06 | Difference [2, 13]: 0.19

O=C(Cn1ccnc1[N+](=O)[O-])NCc1ccccc1 [Benznidazol]
Cholesterol-free [1, 8]: 1.047 | Complete [1, 9]: 1.215 | Difference [1, 10]: 0.17 | Cholesterol-free media + simvastatin (0.04 μM) [2, 11]: 2.104 | Complete Media [2, 12]: 1.636 | Difference [2, 7]: −0.47

O=C(O)CSc1nnc(Br)n1-c1ccc(C2CC2)c2ccccc12 [Lesinurad]
Difference [1, 14]: −0.12 | Cholesterol-free [1, 15]: 1.092 | Complete [1, 6]: 0.9716 | Cholesterol-free media + simvastatin (0.04 μM) [2, 19]: 0.9083 | Complete Media [2, 20]: 0.9388 | Difference [2, 13]: 0.03

Riboflavin (phosphate sodium)
Cholesterol-free [1, 3]: 1.308 | Complete ([1]; NCI-H292 cells, complete media): 0.9828 | Difference [1, 4]: −0.32 | Cholesterol-free media + simvastatin (0.04 μM) [2, 5]: 1.127 | Complete Media [2, 6]: 0.9972 | Difference [2, 7]: −0.13

COc1ccc(/C=C/C(=O)Nc2ccccc2C(=O)O)cc1OC [Tranilast]
Difference [1, 21]: −0.27 | Cholesterol-free [1, 3]: 0.8255 | Complete ([1]; NCI-H292 cells, complete media): 0.5543 | Cholesterol-free media + simvastatin (0.04 μM) [2, 22]: 1.221 | Complete Media [2, 23]: 1.04 | Difference [2, 7]: −0.18

O=C(O)CCCN1CCC(O[C@@H](c2ccc(Cl)cc2)c2ccccn2)CC1 [Bepotastine]
Cholesterol-free [1, 8]: 0.9809 | Complete [1, 9]: 1.256 | Difference [1, 10]: 0.28 | Cholesterol-free media + simvastatin (0.04 μM) [2, 22]: 0.9667 | Complete Media [2, 23]: 0.7639 | Difference [2, 7]: −0.20

CC1(C)S[C@@H]2[C@H](NC(=O)C(c3ccccc3)S(=O)(=O)O)C(=O)N2[C@H]1C(=O)O (some centres unmarked) [Sulbenicillin (disodium)]
Cholesterol-free [1, 8]: 0.8061 | Complete [1, 9]: 1.226 | Difference [1, 10]: 0.42 | Cholesterol-free media + simvastatin (0.04 μM) [2, 22]: 1.164 | Complete Media [2, 23]: 0.9986 | Difference [2, 7]: −0.17

NC(=O)c1cc[n+](CC2=C(C(=O)O)N3C(=O)[C@@H](NC(=O)[C@@H](c4ccccc4)S(=O)(=O)[O-])[C@H]3SC2)cc1 [Cefsulodin (sodium)]
Cholesterol-free [1, 3]: 1.045 | Complete ([1]; NCI-H292 cells, complete media): 0.6569 | Difference [1, 4]: −0.39 | Cholesterol-free media + simvastatin (0.04 μM) [2, 5]: 1.191 | Complete Media [2, 6]: 1.113 | Difference [2, 7]: −0.08

COC(=O)c1cc(OC)c2c(c1-c1c(C(=O)OC)cc(OC)c3c1OCO3)OCO2 [Bifendate]
Cholesterol-free [1, 3]: 1.494 | Complete ([1]; NCI-H292 cells, complete media): 1.156 | Difference [1, 24]: −0.34 | Cholesterol-free media + simvastatin (0.04 μM) [2, 5]: 1.269 | Difference [2, 25]: −0.10

O=C(COc1ccc(Cl)cc1)N1CCN(Cc2ccc3c(c2)OCO3)CC1 [Fipexide]
Difference [1, 21]: −0.02 | Cholesterol-free [1, 8]: 1.201 | Complete [1, 9]: 1.177 | Cholesterol-free media + simvastatin (0.04 μM) [2, 11]: 1.655 | Complete Media [2, 12]: 1.225 | Difference [2, 7]: −0.43

Amlodipine (besylate)
Cholesterol-free [1]: 1.359 | Difference [1]: −0.33 | Cholesterol-free media + simvastatin (0.04 μM) [2]: 1.186 | Difference [2]: −0.19

COC(=O)[C@@H]1[C@H]2C[C@H]3c4[nH]c5ccccc5c4CCN3C[C@@H]2CC[C@@H]1O [Yohimbine (Hydrochloride)]
Difference [1, 26]: −0.74 | Cholesterol-free [1, 27]: 1.558 | Complete [1, 28]: 0.818 | Cholesterol-free media + simvastatin (0.04 μM) [2, 19]: 1.051 | Complete Media [2, 20]: 1.067 | Difference [2, 13]: 0.02

C[C@@H]1NC(=O)[C@@H]2CCCN2C(=O)[C@H](CC(N)=O)NC(=O)[C@@H]2CSSC[C@H](N)C(=O)N[C@H]3CSSC[C@H](NC1=O)C(=O)N[C@@H]([C@@H](C)O)C(=O)NCC(=O)N[C@H](C(=O)N[C@@H](Cc1ccc(O)cc1)C(=O)O)CSSC[C@H](NC(=O)[C@H](Cc1ccc(O)cc1)NC(=O)[C@H](CCC(=O)O)NC3=O)C(=O)N2 [Linaclotide] (HELM PEPTIDE1{C.C.E.Y.C.C.N.P.A.C.T.G.C.Y}$PEPTIDE1,PEPTIDE1,1:R3-6:R3|PEPTIDE1,PEPTIDE1,2:R3-10:R3|PEPTIDE1,PEPTIDE1,5:R3-13:R3$$$V2.0)
Cholesterol-free [1, 8]: 1.326 | Complete [1, 9]: 1.765 | Difference [1, 24]: 0.44 | Cholesterol-free media + simvastatin (0.04 μM) [2, 5]: 0.9562 | Complete Media [2, 6]: 0.8554 | Difference [2, 25]: −0.10

Ketanserin (tartrate)
Difference [1, 21]: 0.03 | Cholesterol-free [1, 8]: 0.9853 | Complete [1, 9]: 1.019 | Cholesterol-free media + simvastatin (0.04 μM) [2, 22]: 1.267 | Difference [2, 7]: −0.22

CCCCC[C@](C)(O)/C=C/[C@@H]1[C@@H](C/C=C\CCCC(=O)O)[C@@H](O)C[C@H]1O.NC(CO)(CO)CO [Carboprost (tromethamine)]
Difference [1, 14]: −0.14 | Cholesterol-free [1, 15]: 1.222 | Complete [1, 6]: 1.08 | Cholesterol-free media + simvastatin (0.04 μM) [2, 11]: 1.591 | Complete Media [2, 12]: 1.306 | Difference [2, 7]: −0.29

COc1c(C)c2c(c(O)c1C/C=C(\C)CCC(=O)OCCN1CCOCC1)C(=O)OC2 [Mycophenolate Mofetil]
Difference [1, 21]: −0.01 | Cholesterol-free [1, 8]: 0.3372 | Complete [1, 9]: 0.3232 | Cholesterol-free media + simvastatin (0.04 μM) [2, 5]: 0.7059 | Complete Media [2, 6]: 0.6206 | Difference [2, 7]: −0.09

CN1CCCC(n2nc(Cc3ccc(Cl)cc3)c3ccccc3c2=O)CC1 (centres unmarked) [Azelastine (hydrochloride)]
Cholesterol-free [1, 8]: 0.9594 | Complete [1, 9]: 1.039 | Difference [1, 10]: 0.08 | Cholesterol-free media + simvastatin (0.04 μM) [2, 22]: 1.092 | Complete Media [2, 23]: 0.8741 | Difference [2, 7]: −0.22

CCC(=O)NCC[C@@H]1CCc2ccc3c(c21)CCO3 [Ramelteon]
Difference [1, 14]: −0.10 | Cholesterol-free [1, 15]: 0.9442 | Complete [1, 6]: 0.8409 | Cholesterol-free media + simvastatin (0.04 μM) [2, 5]: 1.166 | Complete Media [2, 6]: 1.318 | Difference [2, 13]: 0.15

CC(=O)N1C[C@H](O)C[C@H]1C(=O)O [Oxaceprol]
Difference [1, 21]: −0.27 | Cholesterol-free [1, 3]: 0.9566 | Complete ([1]; NCI-H292 cells, complete media): 0.6838 | Cholesterol-free media + simvastatin (0.04 μM) [2, 16]: 0.8786 | Complete Media [2, 17]: 0.8552 | Difference [2, 18]: −0.02

CNCc1cc(-c2ccccc2F)n(S(=O)(=O)c2cccnc2)c1 [Vonoprazan]
Difference [1, 14]: −0.07 | Cholesterol-free [1, 15]: 1.105 | Complete [1, 6]: 1.031 | Cholesterol-free media + simvastatin (0.04 μM) [2, 11]: 1.249 | Complete Media [2, 12]: 0.8473 | Difference [2, 7]: −0.40

Oclacitinib (maleate)
Difference [1, 14]: −0.16 | Cholesterol-free [1, 15]: 0.7098 | Complete [1, 6]: 0.5476 | Cholesterol-free media + simvastatin (0.04 μM) [2, 5]: 0.9891 | Complete Media [2, 6]: 0.8445 | Difference [2, 7]: −0.14

CCCCOC(=O)c1ccc(N)cc1 [Butamben]
Difference [1, 21]: −0.20 | Cholesterol-free [1, 3]: 1.171 | Complete ([1]; NCI-H292 cells, complete media): 0.9712 | Cholesterol-free media + simvastatin (0.04 μM) [2, 11]: 1.665 | Complete Media [2, 12]: 1.081 | Difference [2, 7]: −0.58

NC(=O)Cc1cccc(C(=O)c2ccccc2)c1N [Nepafenac]
Difference [1, 26]: −0.71 | Cholesterol-free [1, 27]: 1.612 | Complete [1, 28]: 0.8984 | Cholesterol-free media + simvastatin (0.04 μM) [2, 16]: 1.737 | Complete Media [2, 17]: 1.699 | Difference [2, 18]: −0.04

O=C(OCc1ccccc1)c1ccccc1 [Benzyl benzoate]
Cholesterol-free [1, 8]: 0.6319 | Complete [1, 9]: 1.132 | Difference [1, 10]: 0.50 | Cholesterol-free media + simvastatin (0.04 μM) [2, 16]: 0.8319 | Complete Media [2, 17]: 0.7979 | Difference [2, 18]: −0.03
